Assay results: article PMC3974779, “Pterostilbene-Isothiocyanate Conjugate Suppresses Growth of Prostate Cancer Cells Irrespective of Androgen Receptor Status” (PLoS ONE, 2014)

Assays:
[1] = system: AR protein in LNCaP cells; assay: Immunoblot of AR protein; type: cell-based, human; conditions: for inhibition of DHT induced AR protein levels: 10 nM DHT; for inhibition of AR protein levels: absence of DHT
Protocol: The whole-cell lysates were prepared as described previously in immunoprecipitation (IP) buffer containing 50 mM Tris-HCl (pH 8.0), 150 mM NaCl, 5 mM EDTA, and 1% Triton X-100. Protein aliquots of 500 μg were then incubated overnight at 4°C using 2 μg of antibody directed against AR. The Protein A-Cl Agarose beads were then added and further incubated for 6 h at 4°C. The immunoprecipitates were washed four times with the IP buffer and the immunocomplexes were recovered by boiling in SDS sample buffer. Finally the western blot was carried out using anti-AR, anti-SRC-1 and anti-GRIP-1 antibodies (Santa Cruz, CA, USA). For western blot analysis, the cell lysates were prepared after harvesting them in lysis buffer. About 40 μg of total protein was electrophoresed by 12% SDS-PAGE, and the western blotting was carried out using standard protocol. In brief, the analyzed proteins were transferred to nylon membranes. The blots were then blocked with TBST buffer (20 mM Tris-Cl, pH 7.5, 150 mM sodium chloride, 0.05% Tween-20) containing 5% skim milk powder. They were then washed with TBST buffer and incubated overnight at 4°C with the same buffer containing appropriate amounts of primary antibodies: caspase-3, Bax, Bcl-2, Akt, p-Akt, ERK, p-ERK, AR, SRC-1, GRIP-1 (1∶500) and β-actin (1∶1000). The blots were then washed and incubated with anti-rabbit secondary antibody (1∶20,000) conjugated with horseradish peroxidase (HRP). Color development was performed in the dark by using an ECL kit (Amersham, GE Healthcare, Buckinghamshire, UK). The developed blots were subjected to densitometric analysis by ImageJ 1.43 software (NIH, USA) using β-actin as internal control.

[2] = target: T1, androgen receptor in LNCaP cells (Homo sapiens, UniProt P10275, T878A); assay: AR transactivation luciferase assay (pMMTV-luc); type: cell-based
T1 construct: LNCaP cells, that express endogenous AR; endogenous in cells; host or cells: LNCaP
T1 sequence (P10275 1-920 T878A): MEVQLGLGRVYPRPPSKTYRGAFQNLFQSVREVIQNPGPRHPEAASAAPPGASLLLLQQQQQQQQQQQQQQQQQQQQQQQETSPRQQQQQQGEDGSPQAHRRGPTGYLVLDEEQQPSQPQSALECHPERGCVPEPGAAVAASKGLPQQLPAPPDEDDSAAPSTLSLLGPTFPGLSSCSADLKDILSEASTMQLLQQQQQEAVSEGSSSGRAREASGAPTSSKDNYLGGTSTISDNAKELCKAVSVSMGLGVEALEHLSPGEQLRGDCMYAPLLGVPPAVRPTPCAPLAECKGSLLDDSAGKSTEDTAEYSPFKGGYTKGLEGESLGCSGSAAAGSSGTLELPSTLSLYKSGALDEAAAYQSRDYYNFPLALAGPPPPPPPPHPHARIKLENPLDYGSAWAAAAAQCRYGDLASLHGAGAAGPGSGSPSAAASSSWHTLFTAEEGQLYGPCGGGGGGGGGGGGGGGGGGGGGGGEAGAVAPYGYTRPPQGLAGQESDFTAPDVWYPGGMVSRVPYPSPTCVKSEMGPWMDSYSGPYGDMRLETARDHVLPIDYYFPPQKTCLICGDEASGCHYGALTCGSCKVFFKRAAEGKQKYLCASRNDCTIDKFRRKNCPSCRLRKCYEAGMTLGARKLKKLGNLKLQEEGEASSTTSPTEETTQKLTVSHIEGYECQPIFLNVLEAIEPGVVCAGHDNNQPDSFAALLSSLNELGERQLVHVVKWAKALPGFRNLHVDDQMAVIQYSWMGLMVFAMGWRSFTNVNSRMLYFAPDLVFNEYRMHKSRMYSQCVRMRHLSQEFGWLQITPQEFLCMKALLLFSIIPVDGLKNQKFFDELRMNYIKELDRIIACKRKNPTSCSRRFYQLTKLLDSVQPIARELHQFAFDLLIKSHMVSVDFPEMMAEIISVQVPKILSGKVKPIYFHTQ
Protocol: The LNCaP cells were grown and transiently transfected with pMMTV-neomycin-luciferase plasmid (300 ng/10^5 cells) in RPMI media supplemented with 10% FBS using polyfect transfection reagent (Qiagen, CA, USA) according to manufacturer’s instructions. Then, 24 h after transfection, the cell culture media were changed with media containing 5% charcoal-stripped FBS to reduce the contaminating steroids from the serum and incubated for an additional day before initiating the treatments. In case of PC-3 cells, they were similarly transfected, but in addition to pMMTV-neomycin-luciferase construct, they were also transfected with pSG5-hAR-puro plasmid (full length hAR in pSG5 expression vector) in the ratio of 5∶1 as indicated above. For experiments involving co-regulators, 50 ng of co-activator plasmids (25 ng each of GRIP-1 and SRC-1) along with pMMTV-neo-luc (250 ng) were transfected to LNCaP cells. To evaluate the transfection efficiency, 500 ng/105 cells of the SV40 promoter-Renilla luciferase (pRL-SV40) vector (Promega Madison, USA) were co-transfected as internal control. […] Each experimental point was performed in triplicate and varied by less than 10%. The values of luciferase for each lysates were normalized to the Renilla luciferase activity.

[3] = target: T1, androgen receptor in LNCaP cells; assay: AR transactivation luciferase assay with/without exogenous SRC-1 and GRIP-1; type: cell-based; conditions: 10 μM with DHT
Protocol: The LNCaP cells were grown and transiently transfected with pMMTV-neomycin-luciferase plasmid (300 ng/10^5 cells) in RPMI media supplemented with 10% FBS using polyfect transfection reagent (Qiagen, CA, USA) according to manufacturer’s instructions. […] In case of PC-3 cells, they were similarly transfected, but in addition to pMMTV-neomycin-luciferase construct, they were also transfected with pSG5-hAR-puro plasmid (full length hAR in pSG5 expression vector) in the ratio of 5∶1 as indicated above. For experiments involving co-regulators, 50 ng of co-activator plasmids (25 ng each of GRIP-1 and SRC-1) along with pMMTV-neo-luc (250 ng) were transfected to LNCaP cells. To evaluate the transfection efficiency, 500 ng/105 cells of the SV40 promoter-Renilla luciferase (pRL-SV40) vector (Promega Madison, USA) were co-transfected as internal control. […] The values of luciferase for each lysates were normalized to the Renilla luciferase activity.

inhibition at 40 µM ([2]; read-out: inhibition of androgen-induced transactivation): ~73%
AR transactivation (DHT alone = 100%) ([3]; with exogenous SRC-1 and GRIP-1): 102%
AR transactivation (DHT alone = 100%) ([3]; without exogenous co-activators): 64%
Structure (SMILES): COc1cc(/C=C/c2ccc(O)c(/C=N/NC(N)=S)c2)cc(OC)c1 [conjugate, Pterostilbene-isothiocyanate conjugate]
inhibition of DHT induced AR protein levels ([1]; 10 μM): 1.1 folds
inhibition of AR protein levels ([1]; 10 μM): 2 folds
inhibition of DHT induced AR protein levels ([1]; 20 μM): 1.8 folds
inhibition of AR protein levels ([1]; 20 μM): 5 folds
transcriptional activation by compound alone ([2]; 1–40 μM, without DHT): did not induce transcriptional activation
